Results: patent publication EP0359745B1, “GROWTH FACTOR RECEPTOR” (IMPERIAL CANCER RESEARCH TECHNOLOGY LIMITED, priority 1987, dated 1988)
Non-standard residues stand in square brackets, D forms with d. Residues, ends and D or L forms follow the SMILES beside them. No end group written: not given here.

Key:
Swiss 3T3 cells [1] = settings: statement in words, earlier work (reference 13); cited from earlier work
Mr 75000-85000 protein = Mr 75000-85000 protein (Mus musculus, UniProt P21729); assay: ¹²⁵I-GRP affinity labelling (EGS cross-linking) of the Mr 75000-85000 protein in Swiss 3T3 cells, SDS-PAGE and scanning densitometry; type: binding; design: endogenous in cells; host or cells: Swiss 3T3 cells (mouse fibroblasts); settings: for cross-linking of ¹²⁵I-GRP / level of the Mr 75000-85000 protein (in words): summary of Table 1, saturating concentrations of the other mitogens; for Mr 75000-85000 protein % of control: ¹²⁵I-GRP (0.5 nM), 15°C, 2.5 h, 6 mM EGS, additions: GRP 360 nM, GRP (14-27) 30 nM, bombesin 30 nM, litorin 92 nM, neuromedin B 220 nM, [D-Arg¹,D-Pro²,D-Trp^7,9,Leu¹¹] substance P 100 »M, GRP (1-16) 3230 nM, PDGF 5 nM, EGF 83 nM, vasopressin 1000 nM, insulin 1 »g/ml, phorbol 12,13 dibutyrate 2000 nM, substance P 740 nM, substance K 880 nM, somatostatin 610 nM, neurotensin 600 nM
Chain of Mr 75000-85000 protein (P21729 whole entry): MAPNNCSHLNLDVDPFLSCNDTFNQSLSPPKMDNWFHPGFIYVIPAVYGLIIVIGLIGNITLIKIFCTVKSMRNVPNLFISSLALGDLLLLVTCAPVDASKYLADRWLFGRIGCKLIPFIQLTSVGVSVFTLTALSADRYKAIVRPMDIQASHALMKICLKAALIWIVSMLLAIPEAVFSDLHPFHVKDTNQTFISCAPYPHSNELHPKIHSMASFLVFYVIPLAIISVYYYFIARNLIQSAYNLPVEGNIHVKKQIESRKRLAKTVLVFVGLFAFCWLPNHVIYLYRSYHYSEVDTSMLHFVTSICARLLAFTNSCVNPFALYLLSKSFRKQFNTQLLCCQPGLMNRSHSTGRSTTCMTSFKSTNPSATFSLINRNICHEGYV
Method: After 2.5 h the cells were washed three times at 15°C with phosphate buffered saline (PBS) ad then incubated for 15 min at 15°C In 1 ml of binding medium, pH 7.4 In the presence of the appropriate cross-linking agent at the concentration indicated. The cross-linking agents (EGS, DSS, DSP and BSCOES) were dissolved in dimethyl sulphoxide immediately prior to use and were added to medium to give a final concentration of dimethylsulphoxide of 1-2%. The cultures were rapidly rinsed twice with PBS at 4°C and solubilized in 0.1ml of 2 x sample buffer 0.2 M Tris-HCl, pH 6.8, 10% (w/v) glycerol, 6% sodium dodecyl sulphate (SDS) (w/v) 4% β-mercaptoethanol (v/v) and 2 mM ethylenediaminetetraacetic acid. Samples were immediately heated at 100°C for 3-5 min and analysed by either one or two-dimensional gel electrophoresis.
Slab gel electrophoresis was performed using 7.5% acrylamide in the separating gel ad 5% in the stacking gel, ad 0.1% SDS (31). After electrophoresis gels were stained, destained and dried down onto paper for autoradiography with Fuji X-ray film (Fuji Photo Film Co. Ltd. Japan). Dried gels were exposed to film for 4-8 days. Two-dimensional gel electrophoresis was performed as described by O'Farrell (32) using isoelectric focusing in the 1st dimension and SDS-polyacrylamide gel electrophoresis (SDS-PAGE) (8% polyacrylamide) in the second dimension. The samples prepared for isoelectric focusing containing 1.4% LKB ampholytes, pH 5-7, plus 0.6% LKD ampholytes, pH 3.5-10, 6M urea, and 2% Nonidet P-40. The Mr 75000-85000 band from autoradiograms was scanned using a Joyce-Loebl double beam densitometer and the areas under specific peaks were measured with a Hewlett-Packard digitizer.
After this time some cells were washed four times with cold (4°C) PBS supplemented with 1 mg/ml BSA, solubilized and total cell associated radioactivity was then determined in a gamma counter. […] The cells were then solubilized and samples were analyzed by SDS-PAGE. After electrophoresis, gels were dried, exposed to film and scanned as described in Materials and Methods. The areas under the individual peaks for the Mr 75000-85000 protein are shown as a function of the concentration of the unlabelled peptide and are expressed as a percentage of the control. […] The level of the Mr 75000-85000 protein expressed in arbitrary units is shown as a function of the concentration of the labelled ligand. Inset: autoradiogram of the gel used for scanning; the Mr 75000-85000 and 160,000 bands are indicated by arrows. All other experimental details were as described in Materials and Methods.
(§1) Figure 4. […] Values are expressed as percentage of the specific binding obtained in the absence of antagonists. […] Each point represents the mean of 3 determinations. […] Specific binding (B) is expressed in pmol/10⁶ cells and is shown in a double-reciprocal plot. Each point represents the mean of duplicate determinations. […] After 2 hours, the cultures were washed twice with binding medium then incubated in 1 ml containing 6 mM ethylene glycol bis (succinimidylsuccinate) (EGS) at pH 7.4 for 15 minutes at 15°C. The cultures were then washed twice with cold phosphate-buffered saline and solubilised in 0.1 ml of 2x sample buffer, then immediately heated at 100°C for 5 minutes and electrophoresed on a 10% polyacrylamide gel.
After the incubation period cultures were treated with 6 mM EGS as described in Materials and Methods. Each value is expressed as a percentage of the level of the Mr 75000-85000 protein obtained with no additons (-). Other experimental details are as described in Materials and Methods.

GRP receptor [2] = target: T1, GRP receptor (Mus musculus, UniProt P21729); settings: statement in words, earlier work (reference 13); cited from earlier work
T1 construct: Confluent and quiescent cultures of Swiss 3T3 cells were incubated at 15°C; endogenous in cells; host or cells: Swiss 3T3 cells (mouse fibroblasts)
T1 sequence (P21729 whole entry): as above

GRP receptor [3] = target: T1, GRP receptor; assay: specific [¹²⁵I]GRP binding to intact Swiss 3T3 cells
Method: (§2) Cell culture procedure (33), assays of DNA synthesis by ³H-thymidine incorporation (34) ad ¹²⁵I-GRP binding to intact cells (13) were performed as described previously.
as §1

Swiss 3T3 cells [4] = assay: reversal of the inhibition of [¹²⁵I]EGF binding induced by GRP in Swiss 3T3 cells; type: cell-based, mouse; settings: read-out: Half-maximal reversal of inhibition (of [¹²⁵I]EGF binding by GRP); [¹²⁵I]EGF 0.2 nM, GRP 3.6 nM, 1 hour, 37°C
Method: (§3) Figure 5. […] Left: Effects of antagonists on [Ca²⁺]i. Quiescent Swiss 3T3 cells grown on Cytodex 2 beads were washed twice with DMEM and incubated for 10 minutes with fura-2 tetracetoxymethyl ester at 1 »m, then washed three times and suspended in 2 ml of electrolyte solution (6) in the fluorimeter at 37°C and stirred. Fluorescence was recorded continuously in a Perkins-Elmer LS5 luminescence spectrometer with an excitation wavelength of 335 nm and emission wavelength of 510 nm. After a period of equilibration, the following additions were made: solvent, S; antagonist A at 5 »m, A, 5 and 20 »m, A, 20; antagonist D at 5»m, D, 5. […] Values are expressed as percentages of the specific binding obtained with [¹²⁵I]EGF alone at 0.2 nM. The non-specific binding was obtained by the addition of 500-fold excess of unlabelled EGF. Each point represents the mean of 6 determinations.

Swiss 3T3 cells [5] = assay: GRP-stimulated rise in cytosolic Ca²⁺ concentration (fura-2 fluorescence) in Swiss 3T3 cells; type: cell-based, mouse
Method: as §3

H69 cells = assay: growth of SCLC cell line in serum-free medium (cell number, Coulter Counter); type: cell-based
Method: Figure 6. […] Stock cultures of cell lines H69, H128 and H417 were maintained in RPMI 1640 medium with 10% fetal bovine serum (heat inactivated) in a humidified atmosphere of 10% CO₂:90% air at 37°C. They were passaged every 7 days. Identical growth was obtained in the serum-free medium of RPMI 1640 supplemented with HITES (29) (hydrocortisone, 10 nM; insulin, 5 »g/ml; transferrin, 100 »g/ml; 17β-estradiol, 10 nM; sodium selenite, 30 nM) and 0.25% bovine serum albumin. […] Cell number was determined at intervals over 14 days in a Coulter Counter after disaggregation of cell clumps by syringing through 19G and 21G needles. Each point represents the mean of 3 determinations.
Figure 7. Inhibition of SCLC growth in vitro by [DPro²]spantide and [DPhe⁵]spantide is concentration-dependent. Cultures of H69 cells were washed twice with RPMI 1640 medium then incubated in serum-free medium (as in Figure 6) in the absence (●) or presence of various concentrations of [DPro²]spantide (o,A) and [DPhe⁵]spantide (△,D). Cell number was determined in a Coulter Counter after disaggregation of cell clumps by syringing through 19G and 21 G needles. Samples were incubated for 13 days, when the controls (inset) had achieved 10-fold increase in number, indicated by the arrow. Each point represents the mean (± standard deviation) of 5 determinations.

Swiss 3T3 cells [6] = assay: GRP-induced DNA synthesis ([³H]thymidine incorporation) in Swiss 3T3 cells; type: cell-based, mouse; settings: for ability to inhibit mitogenesis stimulated by GRP: substance P antagonists tested at 50 »m, ranking in words
Method: as §2
Figure 3. Inhibition of GRP-induced DNA synthesis by [DPro²]spantide (A) and [DPhe⁵]spantide (D). […] After 40 hours DNA synthesis was estimated by [³H]thymidine incorporation into acid-precipitable material. […] Each point represents the mean of duplicate determinations. […] Values are expressed as a percentage of [³H]thymidine incorporation obtained in the absence of antagonists (100% = 8.6 x 10⁵ cpm per dish). Each point represents the mean of 4 determinations.

Compound: CSCC[C@H](NC(=O)[C@H](CC(C)C)NC(=O)CNC(=O)[C@H](Cc1ccccc1)NC(=O)[C@H](Cc1ccccc1)NC(=O)[C@H](CCC(N)=O)NC(=O)[C@H](CCC(N)=O)NC(=O)[C@@H]1CCCN1C(=O)[C@H](CCCCN)NC(=O)[C@@H]1CCCN1C(=O)[C@@H](N)CCCNC(=N)N)C(N)=O [Substance P]
- stimulation of DNA synthesis (Swiss 3T3 cells [1]): nor stimulates DNA synthesis
- cross-linking of ¹²⁵I-GRP / level of the Mr 75000-85000 protein (in words) (Mr 75000-85000 protein): no effect
- inhibition of GRP binding to Swiss 3T3 cells (GRP receptor [2]): neither inhibits

Compound: CC(C)C[C@H](NC(=O)[C@H](CC(C)C)NC(=O)[C@@H](Cc1c[nH]c2ccccc12)NC(=O)[C@H](Cc1ccccc1)NC(=O)[C@@H](Cc1c[nH]c2ccccc12)NC(=O)[C@H](CCC(N)=O)NC(=O)[C@@H](Cc1ccccc1)NC(=O)[C@@H]1CCCN1C(=O)[C@H](CCCCN)NC(=O)[C@@H]1CCCN1C(=O)[C@H](N)CCCN=C(N)N)C(N)=O [[DPhe⁵]spantide, D-Arg-Pro-Lys-Pro-D-Phe-Gln-D-Trp-Phe-D-Trp-Leu-Leu-NH₂] (H-[dR]PKP[dF]Q[dW]F[dW]LL-NH2)
- IC50 (GRP receptor [3]; read-out: Half-maximal inhibition of binding): 2.3 µM
- IC50 (Mr 75000-85000 protein; read-out: Half-maximal inhibition (affinity-labelling of the Mr 75000-85000 protein)): 5.5 µM

Compound: Vasopressin: mitogen for Swiss 3T3 cells
- cross-linking of ¹²⁵I-GRP / level of the Mr 75000-85000 protein (in words) (Mr 75000-85000 protein): not substantially affected
- Mr 75000-85000 protein % of control (Mr 75000-85000 protein): 94 % of control

Compound: Neurotensin: unrelated factor
- Mr 75000-85000 protein % of control (Mr 75000-85000 protein): 93 % of control

Compound: GRP (14-27): the 14-27 amino acid fragment of GRP (MYPRGNHWAVGHLM; ends and bridges not checked; UniProt P07492 37-50, looked up, fragment)
- Mr 75000-85000 protein % of control (Mr 75000-85000 protein): 0.4 % of control

Compound: CC(C)C[C@H](NC(=O)[C@H](CC(C)C)NC(=O)[C@@H](Cc1c[nH]c2ccccc12)NC(=O)[C@H](Cc1ccccc1)NC(=O)[C@@H](Cc1c[nH]c2ccccc12)NC(=O)[C@H](CCC(N)=O)NC(=O)[C@@H](Cc1ccccc1)NC(=O)[C@@H]1CCCN1C(=O)[C@H](CCCCN)NC(=O)[C@@H]1CCCN1C(=O)[C@H](N)CCCNC(=N)N)C(N)=O [[DPhe⁵]spantide, D-Arg-Pro-Lys-Pro-D-Phe-Gln-D-Trp-Phe-D-Trp-Leu-Leu-NH₂] (H-[dR]PKP[dF]Q[dW]F[dW]LL-NH2)
- EC50 (Swiss 3T3 cells [4]): 8.7 µM
- rise in [Ca²⁺]i caused by the addition of GRP (Swiss 3T3 cells [5]; GRP (1 nM), antagonist at 5 »m): effective
- response to PDGF ([Ca²⁺]i) (Swiss 3T3 cells [5]; antagonist at 5 »m, PDGF at 1 nM, specificity): did not prevent
- fold more potent than [DPro²]spantide in this assay (Swiss 3T3 cells [5]; prevention of the GRP-induced rise in [Ca²⁺]i): at least 4 fold
- IC50 (H69 cells; H69 cells, serum-free medium, 13 days, read-out: half-maximal effect (inhibition of growth)): 24 µM
- potency of Antagonist D over Antagonist A (H69 cells; H69 growth inhibition): more than 5 fold
- affinity of the receptors of [¹²⁵I]GRP (GRP receptor [3]; 10 »m antagonist, double reciprocal plot, number of binding sites unchanged): markedly reduces the affinity
- difference in potency (GRP receptor [3]; [DPhe⁵]spantide versus [DPro²]spantide, inhibition of specific [¹²⁵I]GRP binding): 6.1 fold
- IC50 (Swiss 3T3 cells [6]; GRP 3.6 nM, 40 hours, Figure 3 right, read-out: Half-maximal inhibition of DNA synthesis): 22 µM
- concentration of GRP required to produce half-maximal stimulation of DNA synthesis (Swiss 3T3 cells [6]; antagonist at 20 »m, Figure 3 left): markedly increased
- fold more potent than [DPro²]spantide in inhibiting DNA synthesis induced by GRP (Swiss 3T3 cells [6]; ratio of half-maximal concentrations): 5.4 fold
- ability to inhibit mitogenesis stimulated by GRP (Swiss 3T3 cells [6]): most potent GRP antagonist

Compound: GRP (1-16): the 1-16 amino acid fragment of GRP (amino-terminal fragment) (VPLPAGGGTVLTKMYP; Gastrin-releasing peptide; UniProt P07492 24-39, looked up, fragment)
- stimulation of DNA synthesis (Swiss 3T3 cells [1]): nor stimulates DNA synthesis
- cross-linking of ¹²⁵I-GRP / level of the Mr 75000-85000 protein (in words) (Mr 75000-85000 protein): no reduction
- Mr 75000-85000 protein % of control (Mr 75000-85000 protein): 93 % of control
- inhibition of GRP binding to Swiss 3T3 cells (GRP receptor [2]): neither inhibits

Compound: Somatostatin: neuropeptide
- cross-linking of ¹²⁵I-GRP / level of the Mr 75000-85000 protein (in words) (Mr 75000-85000 protein): no effect
- Mr 75000-85000 protein % of control (Mr 75000-85000 protein): 97 % of control

Compound: Spantide
- antagonist activity (Swiss 3T3 cells [6]; even at 100 uM): no antagonist activity
- ability to inhibit mitogenesis stimulated by GRP (Swiss 3T3 cells [6]): less potent than either A or D
